{
  "source": "patent US20020032918A1",
  "about": "“Alteration of growth and adaptation under hypoxic conditions” (priority 2000, published 2002)",
  "key": {"[1]": {"system": "endogenous ABA and GA1 levels in internodes", "conditions": "cited from earlier work"}, "SH2A gene expression": {"system": "SH2A gene expression", "test": "Northern blot analysis of SH2A transcript abundance in isolated deepwater rice stem segments treated with hormone or inhibitor solutions", "format": "cell-based, Oryza sativa L.", "procedure": "Seeds of deepwater rice (Oryza sativa L., Pin Gaew 56) were obtained from the International Rice Research Institute (Los Baños, The Philippines). Plants were grown for 12 to 14 weeks as described (Sauter, 1997). All experiments were carried out under continuous light (200 μE/m^−2 s^−1) at 25° C. in a growth chamber. For submergence treatment, whole plants were placed in a 600 liter plastic barrel filled with tap water as described (Lorbiecke and Sauter, 1999). Control plants were kept in the same growth chamber. Analysis of hormone and inhibitor effects was performed using excised stem segments containing the upper highest growth responsive internode. (Raskin and Kende, 1984). Stem segments were incubated in 150 ml beakers with 25 ml aqueous solutions containing the indicated concentrations of gibberellin A3 (GA3) or the hormone precursor ethephon (2-chlorethanephosphoric acid, E) or water alone as a control. Control segments were incubated for 0.5 or 3 h in water. For ethephon treatment stem segments were preincubated for 0.5 h in water before adding ethephon for 2.5 h.\nTo guarantee high humidity, the beakers were placed in plastic cylinders. Ethylene action was inhibited using 2,5-norbornadiene (bicyclo[2.2.1]hepta-2,5-diene, NBD) at a concentration of 50 μl/l in the gas phase as described (Lorbiecke and Sauter, 1999).\nTo inhibit protein synthesis, stem sections were incubated with aqueous solutions of cycloheximide for 3 hours at the concentrations indicated.\nTo determine submergence-dependent gene expression, mRNA abundance of SH2A and SH2B was analysed by RNA gel blot hybridization. RNA was isolated from different zones of the youngest internode and from adventitious roots of the third node from airgrown or partially submerged deepwater rice plants. Thus, tissue sections of the highest internode, 0-5 mm above the second node and containing the intercalary meristem; 5-15 mm above the second node containing the elongation zone; and 15-30 mm above the second node and containing the differentiation zone were used (Lorbiecke and Sauter, 1997). Adventitious roots of the third node were isolated as described (Lorbiecke and Sauter, 1999). The tissues were immediately frozen in liquid nitrogen and stored at −70° C. until RNA extraction. Total RNA was isolated with the TRIzol reagent (Gibco BRL) and precipitated with 4 M LiCl as described (Puissant and Houdebine, 1990, Lorbiecke and Sauter, 1999). RNA separation and Northern blot hybridization were carried out as described previously (Lorbiecke and Sauter, 1998). For RNA blot analysis, 20 μg of total RNA was separated by electrophoresis on a 1% (w/v) agarose gel containing 6% formaldehyde. The RNA was blotted to a nylon membrane (Hybond N+; Amersham, Braunschweig, Germany) according to Lorbiecke and Sauter (1998). For hybridization, gene-specific cDNA-fragments covering the 3′-regions of SH2A (nt 496-867) and SH2B (nt 513-980) were random prime labelled with 32P using the ‘Rediprime Labelling Kit’ (Amersham, Braunschweig, Germany). Hybridization was carried out overnight at 68° C. in 1% SDS, 1 M NaCl, 10% (w/v) dextran sulfate and heat-denatured salmon sperm DNA. The blots were washed once in 1× SSC (0.15 M NaCl, 15 mM Na-citrate, pH 7.0) at 68° C. and once in 1× SSC, 1% (w:v) SDS at 68° C. for 10 min each (Sauter, 1997).\nTo analyse the hormone-dependent expression of the SH2A gene, isolated stem segments containing the youngest internode were treated with different hormone or inhibitor solutions for 2.5 hours. Total RNAs were isolated from the regions containing the intercalary meristem and the elongation zone and were analysed for SH2A transcript abundance (FIG. 8a)."}, "[2]": {"system": "seedlings of a submergence intolerant cultivar", "conditions": "elongation response inhibited by spraying; cited from earlier work"}},
  "data": [
    {"smiles": "C=C", "note": "[ethylene]", "values": [
      {"measurement": "increase of endogenous GA1 levels", "setting": "[1]; at the same time (within three hours)", "value": "four-fold"},
      {"measurement": "reduction of endogenous ABA levels in internodes", "setting": "[1]; within three hours of application of ethylene", "value": 75, "unit": "%"}
    ]},
    {"smiles": "C=C1C[C@]23C[C@@]1(O)CC[C@H]2[C@@]12C=C[C@H](O)[C@@](C)(C(=O)O1)[C@H]2[C@@H]3C(=O)O", "note": "[GA3, gibberellin A3]", "values": [
      {"measurement": "SH2A transcript levels", "setting": "SH2A gene expression; incubation with 50 μM GA3, after 2.5 h, compared with controls", "value": "did not result in increased SH2A transcript levels"}
    ]},
    {"smiles": "C[C@@H]1C[C@@H]([C@H](O)CC2CC(=O)NC(=O)C2)C(=O)[C@@H](C)C1", "note": "[cycloheximide]", "values": [
      {"measurement": "induction of SH2A gene expression in the presence of the protein synthesis inhibitor", "setting": "SH2A gene expression; 150 μM ethephon with cycloheximide, intercalary meristem", "value": "occurred"},
      {"measurement": "cycloheximide concentration required for SH2A gene induction", "setting": "SH2A gene expression; dose response, 3 h, intercalary meristem", "value": "≥ 20", "unit": "µg/mL"},
      {"measurement": "SH2A transcripts after treatment with CHX alone", "setting": "SH2A gene expression; stem segments, 3 h, intercalary meristem", "value": "accumulation of SH2A transcripts"}
    ]},
    {"smiles": "C1=CC2C=CC1C2", "note": "[norbornadiene, bicyclo[2.2.1]hepta-2,5-diene]", "values": [
      {"measurement": "SH2A transcript levels", "setting": "SH2A gene expression; ethephon in combination with norbornadiene at 50 μl/l in the gas phase", "value": "reduced to control levels"}
    ]},
    {"smiles": "CC(C)(C)[C@@H](O)[C@@H](Cc1ccc(Cl)cc1)n1cncn1", "note": "(racemic) [paclobutrazol]", "values": [
      {"measurement": "survival of seedlings", "setting": "[2]", "value": "greatly enhanced"}
    ]},
    {"smiles": "O=P(O)(O)CCCl", "note": "[ethephon, 2-chloroethanephosphoric acid]", "values": [
      {"measurement": "SH2A mRNA levels between 2 and 6 hours", "setting": "SH2A gene expression; 150 μM ethephon, meristem and elongation zone", "value": "declined to control levels"},
      {"measurement": "time of maximal SH2A mRNA abundance", "setting": "SH2A gene expression; 150 μM ethephon, meristem and elongation zone, RNA at 1 hour intervals", "value": 2, "unit": "h"},
      {"measurement": "lowest ethephon concentration inducing SH2A transcript accumulation", "setting": "SH2A gene expression; 2.5 hours, 0.015-150 μM tested, intercalary meristem", "value": 1.5, "unit": "µM"},
      {"measurement": "SH2A transcript levels", "setting": "SH2A gene expression; stem segments treated with 150 μM ethephon, 2.5 h, intercalary meristem and elongation zone", "value": "strong increase"}
    ]}
  ]
}
